The source of these data is ChEMBL document CHEMBL2380208, “Novel quinoline derivatives as inhibitors of bacterial DNA gyrase and topoisomerase IV” (Bioorg Med Chem Lett, 2013).

One may read the MIC as the lowest concentration that inhibits growth of the organism. A word on the IC50: it is the midpoint of a concentration-inhibition curve. Read a high IC50 as lower potency.

Structures are written as SMILES. Converted amounts (≈) assume the structure as drawn. A value given as a limit tells only on which side of the number the result lay.

In assay [1] the test system is Staphylococcus aureus. Briefly: Antibacterial activity against fluoroquinolone-resistant Staphylococcus aureus 1095. The class given is functional.
Assay [2] relates to Staphylococcus aureus. The experiment in a line: Antibacterial activity against fluoroquinolone-resistant Staphylococcus aureus harboring DNA gyrase M121K mutant. In kind it is functional.
Assay [3] is described as follows: Inhibition of Staphylococcus aureus DNA topoisomerase 4.
In another assay the target is DNA gyrase (Staphylococcus aureus, UniProt P0A0K8+P20831). The experiment in a line: Inhibition of Staphylococcus aureus DNA gyrase. The class given is protein-complex assay.
Assay [4] relates to Staphylococcus aureus. The experiment in a line: Antibacterial activity against Staphylococcus aureus 1146. The class given is functional.
Assay [5] deals with Staphylococcus aureus. The experiment in a line: Antibacterial activity against fluoroquinolone-resistant Staphylococcus aureus harboring DNA gyrase D83N mutant. In kind it is functional.

As for `COc1ccc2nccc([C@@H](O)CC[C@@H]3CCN(C4CC(c5c(OC)ccc(F)c5F)C4)C[C@@H]3C(=O)O)c2c1` (some centres not stated), the MIC in the assay on Staphylococcus aureus [1] was 2 µg/mL (≈ 3.7 µM); in the assay with Staphylococcus aureus [2], more than 64 µg/mL; against Staphylococcus aureus [4], 0.25 µg/mL (≈ 0.462 µM); against Staphylococcus aureus [5], 64 µg/mL (≈ 118 µM). In addition, the figures for the IC50 (in assay [3]; against DNA gyrase) were 45 µM and 1.56 µM, respectively.

On to `COc1ccc2nccc([C@@H](O)CC[C@@H]3CCN(C4CC(c5ccc(F)cc5F)C4)C[C@@H]3C(=O)O)c2c1` (some centres not stated), for which the MIC against Staphylococcus aureus [1] is 0.25 µg/mL (≈ 0.49 µM); against Staphylococcus aureus [2], 64 µg/mL (≈ 125 µM); with Staphylococcus aureus [4], not above 0.0625 µg/mL; in the assay with Staphylococcus aureus [5], 64 µg/mL (≈ 125 µM). For the same molecule, the IC50 in assay [3] was found to be 60 µM; on DNA gyrase, 9.4 µM.

With `COc1ccc2nccc([C@@H](O)CC[C@@H]3CCN(C4CC(c5cccc(F)c5)C4)C[C@@H]3C(=O)O)c2c1` (some centres not stated), the MIC was 0.125 µg/mL (≈ 0.254 µM) against Staphylococcus aureus [1], 32 µg/mL (≈ 65 µM) against Staphylococcus aureus [2], not above 0.0625 µg/mL against Staphylococcus aureus [4] and 32 µg/mL (≈ 65 µM) against Staphylococcus aureus [5]. Also, the IC50 in assay [3] was 38 µM; at DNA gyrase, 1.56 µM.

On to `COc1ccc2nccc([C@@H](O)CC[C@@H]3CCN(C4CC(c5cc(F)cc(F)c5OC)C4)C[C@@H]3C(=O)O)c2c1` (some centres not stated), for which the MIC in the assay on Staphylococcus aureus [1] stood at 2 µg/mL (≈ 3.7 µM); in the assay on Staphylococcus aureus [2], 64 µg/mL (≈ 118 µM); in the assay with Staphylococcus aureus [4], 0.5 µg/mL (≈ 0.925 µM); against Staphylococcus aureus [5], 32 µg/mL (≈ 59.2 µM). Besides, the IC50 in assay [3] came to 60 µM; against DNA gyrase it was 6.25 µM.

With `COc1ccc2nccc([C@@H](O)CC[C@@H]3CCN(C4CC(c5cc(Cl)ccc5F)C4)C[C@@H]3C(=O)O)c2c1` (some centres not stated), the MIC with Staphylococcus aureus [1] is not above 0.0625 µg/mL; against Staphylococcus aureus [2] it was 64 µg/mL (≈ 121 µM); in the assay with Staphylococcus aureus [4], not above 0.0625 µg/mL; in the assay with Staphylococcus aureus [5], 64 µg/mL (≈ 121 µM). The 50% inhibitory concentration (IC50) in assay [3] stood at 33.3 µM; at DNA gyrase, 1.56 µM.

For the molecule `COc1ccc2nccc([C@@H](O)CC[C@@H]3CCN(C4CC(c5cc(F)c(Cl)cc5F)C4)C[C@@H]3C(=O)O)c2c1` (some centres not stated), the MIC in the assay with Staphylococcus aureus [1] was 1 µg/mL (≈ 1.83 µM); in the assay with Staphylococcus aureus [2] it was more than 64 µg/mL; in the assay on Staphylococcus aureus [4], 0.25 µg/mL (≈ 0.459 µM); against Staphylococcus aureus [5] it was more than 64 µg/mL. The values for the IC50 (in assay [3]; against DNA gyrase) were 120 µM and 4.7 µM, respectively.

On to `COc1ccc2nccc([C@@H](O)CC[C@@H]3CCN(C4CC(c5c(F)ccc(F)c5F)C4)C[C@@H]3C(=O)O)c2c1` (some centres not stated), for which the minimum inhibitory concentration (MIC) was not above 0.0625 µg/mL against Staphylococcus aureus [1], 16 µg/mL (≈ 30.3 µM) against Staphylococcus aureus [2], not above 0.0625 µg/mL in the assay on Staphylococcus aureus [4] and 8 µg/mL (≈ 15.1 µM) against Staphylococcus aureus [5]. For the same molecule, the results for the 50% inhibitory concentration (IC50) (in assay [3]; on DNA gyrase) were 35.6 µM and 1.56 µM, respectively.

`COc1ccc2nccc([C@@H](O)CC[C@@H]3CCN(C4CC(c5ccccc5F)C4)C[C@@H]3C(=O)O)c2c1` (some centres not stated): the MIC against Staphylococcus aureus [1] was not above 0.0625 µg/mL; with Staphylococcus aureus [2], more than 64 µg/mL; against Staphylococcus aureus [4] it was not above 0.0625 µg/mL; in the assay on Staphylococcus aureus [5] it was 64 µg/mL (≈ 130 µM). Further, the IC50 is 37 µM in assay [3] and 12.5 µM at DNA gyrase.

On to `COc1ccc2nccc([C@@H](O)CC[C@@H]3CCN(C4CC(c5c(F)ccc(F)c5OC)C4)C[C@@H]3C(=O)O)c2c1` (some centres not stated), for which the MIC in the assay with Staphylococcus aureus [1] was not above 0.0625 µg/mL; against Staphylococcus aureus [2], more than 64 µg/mL; in the assay with Staphylococcus aureus [4], not above 0.0625 µg/mL; with Staphylococcus aureus [5] it was 64 µg/mL (≈ 118 µM). In addition, the concentration for half-maximal inhibition (IC50) in assay [3] was 25 µM; on DNA gyrase, 3.13 µM.

For `COc1ccc2nccc([C@@H](O)CC[C@@H]3CCN(C4CC(c5cc(F)ccc5C(F)(F)F)C4)C[C@@H]3C(=O)O)c2c1` (some centres not stated), the minimal inhibitory concentration (MIC) was found to be 0.5 µg/mL (≈ 0.892 µM) against Staphylococcus aureus [1], 32 µg/mL (≈ 57.1 µM) against Staphylococcus aureus [2], 0.25 µg/mL (≈ 0.446 µM) in the assay on Staphylococcus aureus [4] and 16 µg/mL (≈ 28.5 µM) against Staphylococcus aureus [5]. Moreover, the results for the IC50 (in assay [3]; on DNA gyrase) were 60 µM and 9.4 µM, respectively.

As for `COc1ccc2nccc([C@@H](O)CC[C@@H]3CCN(C4CC(c5ccc(F)c(F)c5F)C4)C[C@@H]3C(=O)O)c2c1` (some centres not stated), the MIC in the assay on Staphylococcus aureus [1] was 0.5 µg/mL (≈ 0.946 µM); against Staphylococcus aureus [2], more than 64 µg/mL; against Staphylococcus aureus [4], not above 0.0625 µg/mL; against Staphylococcus aureus [5] it was more than 64 µg/mL. Besides, the values for the IC50 (in assay [3]; on DNA gyrase) were 110 µM and 3.13 µM, respectively.

Take `COc1ccc2nccc([C@@H](O)CC[C@@H]3CCN(C4CC(c5cc(F)c(OC)cc5F)C4)C[C@@H]3C(=O)O)c2c1` (some centres not stated): the MIC against Staphylococcus aureus [1] is more than 64 µg/mL; in the assay with Staphylococcus aureus [2], more than 64 µg/mL; with Staphylococcus aureus [4], 32 µg/mL (≈ 59.2 µM); against Staphylococcus aureus [5], more than 64 µg/mL. In addition, the concentration for half-maximal inhibition (IC50) in assay [3] was 240 µM; on DNA gyrase, 50 µM.
